Measurements reported in US12441768B2, “Compositions and methods for treating endometriosis” (EndoMet Biosciences, Inc., priority 2018, dated 2025).
Where a SMILES comes first, the peptide text is derived from it. [ ]: non-standard residue; d: D form. The star is where a group is joined. ξ: configuration not given here. NMeW = CN[C@@H](Cc1c[nH]c2ccccc12)C(=O)O; Palmitoyl = CCCCCCCCCCCCCCCC(=O)*; ξαMeV = CC(C)C(C)(N)C(=O)O; ξαMeS = CC(N)(CO)C(=O)O; GABA = NCCCC(=O)O

Experiments:
β-catenin = target: T1, β-catenin (Homo sapiens, UniProt P35222); experiment: KD50 measurement using competitive fluorescence polarization (FP) with labelled TCF4; type: binding; conditions: fluorescence polarization, β-catenin; for Kd: read-out: β-Cat FP KD
T1 sequence (P35222 1-781): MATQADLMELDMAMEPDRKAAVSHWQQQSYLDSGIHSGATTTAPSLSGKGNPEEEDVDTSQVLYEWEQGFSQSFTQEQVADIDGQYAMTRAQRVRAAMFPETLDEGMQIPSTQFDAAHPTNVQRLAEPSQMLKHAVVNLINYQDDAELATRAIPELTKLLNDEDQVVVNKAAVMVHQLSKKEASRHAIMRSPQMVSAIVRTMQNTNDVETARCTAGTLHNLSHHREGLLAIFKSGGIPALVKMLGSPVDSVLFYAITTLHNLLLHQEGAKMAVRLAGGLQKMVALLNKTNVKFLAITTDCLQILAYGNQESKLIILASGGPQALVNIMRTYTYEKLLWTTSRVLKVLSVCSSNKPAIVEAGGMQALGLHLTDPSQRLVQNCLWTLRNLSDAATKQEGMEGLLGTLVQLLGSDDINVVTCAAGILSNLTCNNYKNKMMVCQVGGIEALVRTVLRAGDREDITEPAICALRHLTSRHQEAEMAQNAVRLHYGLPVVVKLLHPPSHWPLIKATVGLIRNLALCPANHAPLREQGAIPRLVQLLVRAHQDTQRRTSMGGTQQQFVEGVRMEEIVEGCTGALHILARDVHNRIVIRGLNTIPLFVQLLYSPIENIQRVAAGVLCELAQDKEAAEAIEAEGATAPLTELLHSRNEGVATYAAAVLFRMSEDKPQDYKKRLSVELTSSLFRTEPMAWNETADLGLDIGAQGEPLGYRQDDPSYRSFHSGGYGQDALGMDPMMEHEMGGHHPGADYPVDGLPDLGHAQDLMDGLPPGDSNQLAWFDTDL
How it was run: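 Each compound competes against labelled TCF4 (5 nM) for 100 nM β-catenin at room temperature, tested over 10 nM to 30 uM. Signal: polarization at 470/520 nm excitation/emission. Three repeat experiments were performed.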

[1] = target: Wnt-responsive promoter (TCF/LEF); experiment: Wnt-dependent luciferase reporter assay; type: cell-based, murine
Method: The luciferase reporter assay is commonly used as a tool to study gene expression at the transcriptional level. Peptides from libraries described herein were characterized for ability to suppress transcription in cells with luciferase expression controlled by a Wnt-responsive promoter. Peptides were added to cells transfected with luciferase gene downstream of a Wnt-responsive promoter. Cells were stimulated with Wnt3a protein and incubated with peptides from libraries described herein. Luminescence was recorded to determine the peptides with the highest β-catenin-inhibiting activity. EC50 values were calculated based on the inhibition of luminescence and expressed as concentration (uM) in Table 5.
Peptides were assessed for their ability to inhibit Wnt signaling. Murine 3T3 fibroblasts that express luciferase under a Wnt-responsive promoter (TCF/LEF) (Enzo Life Sciences, Farmingdale, NY) were stimulated with Wnt3a in the presence of increasing concentrations of peptide inhibitor (Hit 1: SEQ ID NO:217, Hit 2: SEQ ID NO:224, Hit 3: SEQ ID NO:228, Hit 4: SEQ ID NO:227, Hit 5: SEQ ID NO:220, Hit 6: SEQ ID NO:168. Hit 7: SEQ ID NO:226) or with vehicle control (FIG. 2A).

Kd (β-catenin) [µM] | EC50 [1] [µM] | β-Cat FP Hill slope (β-catenin) | Compound
< 0.4 | > 30 | 0.7 | CC[C@H](C)[C@H](NC(=O)[C@H](CO)NC(=O)[C@H](CCC(=O)O)NC(=O)[C@H](Cc1c[nH]c2ccccc12)N(C)C(=O)[C@H](Cc1c[nH]c2ccccc12)NC)C(=O)N[C@@H](CC(C)C)C(=O)N[C@@H](CC(=O)O)C(=O)N[C@@H](CCC(=O)O)C(=O)N[C@@H](Cc1c[nH]cn1)C(=O)N[C@H](C(=O)N[C@@H](CCC(N)=O)C(=O)N[C@@H](CCCNC(=N)N)C(=O)N[C@H](C(=O)N[C@@H](Cc1c[nH]c2ccccc12)C(=O)NCC(N)=O)C(C)C)C(C)C [compound 37] (HELM PEPTIDE1{[meW].[meW].E.S.I.L.D.E.H.V.Q.R.V.W.G.[am]}$$$$V2.0)
– | 7.5 to 15 | – | CCCCCCCCCCCCCCCC(=O)NCC(=O)N[C@@H](Cc1c[nH]c2ccccc12)C(=O)N(C)[C@@H](Cc1c[nH]c2ccccc12)C(=O)N[C@@H](CCC(=O)O)C(=O)NC(C)(CO)C(=O)N[C@H](C(=O)N[C@@H](CC(C)C)C(=O)N[C@@H](CC(=O)O)C(=O)N[C@@H](CCC(=O)O)C(=O)N[C@@H](Cc1c[nH]cn1)C(=O)NC(C)(C(=O)N[C@@H](CCC(N)=O)C(=O)N[C@@H](CCCNC(=N)N)C(=O)N[C@H](C(=O)N[C@@H](Cc1c[nH]c2ccccc12)C(=O)O)C(C)C)C(C)C)[C@@H](C)CC (stereo partly shown) [compound 398] (Palmitoyl-GW[NMeW]E[ξαMeS]ILDEH[ξαMeV]QRVW-OH)
– | 7.5 to 15 | – | CCCCCCCCCCCCCCCC(=O)NCCCC(=O)N[C@@H](Cc1c[nH]c2ccccc12)C(=O)N(C)[C@@H](Cc1c[nH]c2ccccc12)C(=O)N[C@@H](CCC(=O)O)C(=O)NC(C)(CO)C(=O)N[C@H](C(=O)N[C@@H](CC(C)C)C(=O)N[C@@H](CC(=O)O)C(=O)N[C@@H](CCC(=O)O)C(=O)N[C@@H](Cc1c[nH]cn1)C(=O)NC(C)(C(=O)N[C@@H](CCC(N)=O)C(=O)N[C@@H](CCCNC(=N)N)C(=O)N[C@H](C(=O)N[C@@H](Cc1c[nH]c2ccccc12)C(=O)O)C(C)C)C(C)C)[C@@H](C)CC (stereo partly shown) [compound 400] ({Palmitoyl-GABA}-W[NMeW]E[ξαMeS]ILDEH[ξαMeV]QRVW-OH)
< 0.4 | – | 0.81 | CC[C@H](C)[C@H](NC(=O)[C@H](CO)NC(=O)[C@H](CCC(N)=O)NC(=O)[C@H](C)N(C)C(=O)[C@H](Cc1c[nH]c2ccccc12)NC(C)=O)C(=O)N[C@@H](CC(C)C)C(=O)N[C@@H](CC(=O)O)C(=O)N[C@H]1CCC(=O)NCCCC[C@@H](C(=O)N[C@H](C(=O)N[C@@H](Cc2c[nH]c3ccccc23)C(=O)NCC(N)=O)C(C)C)NC(=O)[C@H](CCC(N)=O)NC(=O)[C@H](C2CCCCC2)NC(=O)[C@H](Cc2c[nH]cn2)NC1=O [compound 470] (HELM PEPTIDE1{[ac].W.[meA].Q.S.I.L.D.E.H.[O=C([C@@H](N[*:1])C1CCCCC1)[*:2]].Q.K.V.W.G.[am]}$PEPTIDE1,PEPTIDE1,9:R3-13:R3$$$V2.0)
< 0.4 | – | – | CCCCCCCCCCCC(=O)N[C@@H](Cc1c[nH]c2ccccc12)C(=O)N(C)[C@@H](C)C(=O)N[C@@H](CCC(N)=O)C(=O)N[C@@H](CO)C(=O)N[C@H](C(=O)N[C@@H](CC(C)C)C(=O)N[C@@H](CC(=O)O)C(=O)N[C@H]1CCC(=O)NCCCC[C@@H](C(=O)N[C@H](C(=O)N[C@@H](Cc2c[nH]c3ccccc23)C(=O)NCC(N)=O)C(C)C)NC(=O)[C@H](CCC(N)=O)NC(=O)[C@H](C2CCCCC2)NC(=O)[C@H](Cc2c[nH]cn2)NC1=O)[C@@H](C)CC [compound 471] (HELM PEPTIDE1{[CCCCCCCCCCCC(=O)[*:2]].W.[meA].Q.S.I.L.D.E.H.[O=C([C@@H](N[*:1])C1CCCCC1)[*:2]].Q.K.V.W.G.[am]}$PEPTIDE1,PEPTIDE1,9:R3-13:R3$$$V2.0)
< 0.4 | – | 0.88 | H-GGGDDLGANDELISFKDEGEQEEKSSENSSAERDLADVKSSLVNEK-NH2 [compound 266]

The next lines start with the compound.

Compound | Kd (β-catenin) [µM] | EC50 [1] [µM] | β-Cat FP Hill slope (β-catenin)
CC[C@H](C)[C@H]1NC(=O)[C@@H](CO)NC(=O)[C@@H](CCC(=O)O)NC(=O)[C@H](Cc2c[nH]c3ccccc23)NC(=O)CCCCn2cc(nn2)CC(C(N)=O)NC(=O)[C@H](Cc2c[nH]c3ccccc23)NC(=O)[C@H](C(C)C)NC(=O)[C@H](CCCNC(=N)N)NC(=O)[C@@H](CCC(N)=O)NC(=O)[C@@H](C(C)C)NC(=O)[C@@H](Cc2cnc[nH]2)NC(=O)[C@H](CCC(=O)O)NC(=O)[C@H](CC(=O)O)NC(=O)[C@H](CC(C)C)NC1=O (stereo partly shown) [compound 33] | > 30 | > 30 | –
CC[C@H](C)[C@H](NC(=O)[C@H](CO)NC(=O)[C@H](CCC(=O)O)NC(=O)[C@H](Cc1c[nH]c2ccccc12)NC(=O)[C@@H](N)CCSC)C(=O)N[C@@H](CC(C)C)C(=O)N[C@@H](CC(=O)O)C(=O)N[C@@H](CCC(=O)O)C(=O)N[C@@H](Cc1c[nH]cn1)C(=O)NC(C)(C(=O)N[C@@H](CCC(N)=O)C(=O)N[C@@H](CCCNC(=N)N)C(=O)N[C@H](C(=O)N[C@@H](Cc1c[nH]c2ccccc12)C(=O)NCC(N)=O)C(C)C)C(C)C (stereo partly shown) [compound 34] (HELM PEPTIDE1{M.W.E.S.I.L.D.E.H.[CC(C)C(C)(N[*:1])C(=O)[*:2]].Q.R.V.W.G.[am]}$$$$V2.0) | < 0.4 | > 30 | 0.92
CC[C@H](C)[C@H](NC(=O)C(C)(CO)NC(=O)[C@H](CCC(=O)O)NC(=O)[C@H](Cc1c[nH]c2ccccc12)NC(=O)[C@@H](N)CCSC)C(=O)N[C@@H](CC(C)C)C(=O)N[C@@H](CC(=O)O)C(=O)N[C@@H](CCC(=O)O)C(=O)N[C@@H](Cc1c[nH]cn1)C(=O)N[C@H](C(=O)N[C@@H](CCC(N)=O)C(=O)N[C@@H](CCCNC(=N)N)C(=O)N[C@H](C(=O)N[C@@H](Cc1c[nH]c2ccccc12)C(=O)NCC(N)=O)C(C)C)C(C)C (stereo partly shown) [compound 35] (HELM PEPTIDE1{M.W.E.[CC(CO)(N[*:1])C(=O)[*:2]].I.L.D.E.H.V.Q.R.V.W.G.[am]}$$$$V2.0) | < 0.4 | > 30 | 0.96
CC[C@H](C)[C@H](NC(=O)[C@H](CO)NC(=O)[C@H](CCC(=O)O)NC(=O)[C@H](Cc1c[nH]c2ccccc12)N(C)C(=O)[C@@H](N)Cc1c[nH]c2ccccc12)C(=O)N[C@@H](CC(C)C)C(=O)N[C@@H](CC(=O)O)C(=O)N[C@@H](CCC(=O)O)C(=O)N[C@@H](Cc1c[nH]cn1)C(=O)N[C@H](C(=O)N[C@@H](CCC(N)=O)C(=O)N[C@@H](CCCNC(=N)N)C(=O)N[C@H](C(=O)N[C@@H](Cc1c[nH]c2ccccc12)C(=O)NCC(N)=O)C(C)C)C(C)C [compound 36] (HELM PEPTIDE1{W.[meW].E.S.I.L.D.E.H.V.Q.R.V.W.G.[am]}$$$$V2.0) | < 0.4 | > 30 | 0.87
CC[C@H](C)[C@H](NC(=O)C(C)(CO)NC(=O)[C@H](CCC(=O)O)NC(=O)[C@H](Cc1c[nH]c2ccccc12)N(C)C(=O)[C@@H](N)Cc1c[nH]c2ccccc12)C(=O)N[C@@H](CC(C)C)C(=O)N[C@@H](CC(=O)O)C(=O)N[C@@H](CCC(=O)O)C(=O)N[C@@H](Cc1c[nH]cn1)C(=O)NC(C)(C(=O)N[C@@H](CCC(N)=O)C(=O)N[C@@H](CCCNC(=N)N)C(=O)N[C@H](C(=O)N[C@@H](Cc1c[nH]c2ccccc12)C(=O)NCC(N)=O)C(C)C)C(C)C (stereo partly shown) [compound 38] (HELM PEPTIDE1{W.[meW].E.[CC(CO)(N[*:1])C(=O)[*:2]].I.L.D.E.H.[CC(C)C(C)(N[*:1])C(=O)[*:2]].Q.R.V.W.G.[am]}$$$$V2.0) | < 0.4 | > 30 | 0.9
CCCCCCCCCCCC(=O)N[C@@H](Cc1c[nH]c2ccccc12)C(=O)N1CCC[C@H]1C(=O)N[C@@H](CCC(N)=O)C(=O)N[C@@H](CO)C(=O)N[C@H](C(=O)N[C@@H](CC(C)C)C(=O)N[C@@H](CC(=O)O)C(=O)N[C@H]1CCC(=O)NCCCC[C@@H](C(=O)N[C@H](C(=O)N[C@@H](Cc2c[nH]c3ccccc23)C(=O)NCC(N)=O)C(C)C)NC(=O)[C@H](CCC(N)=O)NC(=O)[C@H](C2CCCCC2)NC(=O)[C@H](Cc2c[nH]cn2)NC1=O)[C@@H](C)CC [compound 473] (HELM PEPTIDE1{[CCCCCCCCCCCC(=O)[*:2]].W.P.Q.S.I.L.D.E.H.[O=C([C@@H](N[*:1])C1CCCCC1)[*:2]].Q.K.V.W.G.[am]}$PEPTIDE1,PEPTIDE1,9:R3-13:R3$$$V2.0) | < 0.4 | – | –
